Measured values reported in US12528816B2, “Substituted imidazo [1,2-b] pyridazines and [1, 2, 4] triazolo [ 4,3-b] pyridazines as camkii inhibitors” (Cardurion Pharmaceuticals, INC., priority 2020, dated 2026).

The compounds below were run against T1, human CaMKIIδ (Homo sapiens, UniProt Q13557) (assay: Evaluation of in vitro CaMKII inhibitory activity (binding assay, TR-FRET)). Details: in vitro CaMKII inhibitory activity (binding assay), human CaMKIIδ; read-out: Act.
T1 construct: Full-length, glutathione-S-transferase(GST)-tagged, human CaMKIIδ was purchased from Carna Biosciences; purchased Carna Biosciences (CaMKIIδ); Wako Pure Chemical Industries (calmodulin) 02-111
How it was run: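 Inhibitors, in eight concentrations of 4-fold dilution, were incubated 1 h at room temperature with a protein–fluorescent probe premix preformed 30 min on ice, containing calmodulin and terbium anti-GST antibody. Displacement read by TR-FRET in duplicate; IC50 by logistic fitting.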

Row | SMILES | IC50
1 | C[C@@H](Cn1cnnn1)Oc1cc(-c2ccn3ncc(-c4ncccc4C#N)c3n2)ccc1F [compound 295] | < 10 nM
2 | C[C@@H](Cn1cnnn1)Oc1cc(F)cc(-c2ccc3ncc(-c4ncccc4C#N)n3n2)c1 [compound 296] | < 10 nM
3 | C[C@@H](Cn1cnnn1)Oc1cc(-c2ccc3ncc(-c4c(C#N)ccc[n+]4[O-])n3n2)ccc1F [compound 297] | 10 to 100 nM
4 | C[C@@H](Cn1cnnn1)Oc1cc(-c2ccc3ncc(-c4cc(F)ccc4C#N)n3n2)ncn1 [compound 299] | 10 to 100 nM
5 | C[C@@H](Cn1cnnn1)Oc1cccc(-c2ccc3ncc(-c4[nH]ccc(=O)c4C#N)n3n2)c1 [compound 301, 4-oxo-2-[6-(3-{[(2S)-1-(1H-tetrazol-1-yl)propan-2-yl]oxy}phenyl)imidazo[1,2-b]pyridazin-3-yl]-1,4-dihydropyridine-3-carbonitrile] | 10 to 100 nM
6 | C[C@@H](Cn1cnnn1)Oc1cccc(-c2ccn3ncc(-c4nccnc4C#N)c3n2)c1 [compound 302] | < 10 nM
7 | C[C@@H](Cn1cnnn1)Oc1cccc(-c2ccc3ncc(-c4ccccc4C=O)n3n2)c1 [compound 303] | < 10 nM
8 | C[C@@H](Cn1cnnn1)Oc1cccc(-c2ccn3ncc(-c4ncccc4C#N)c3n2)c1 [compound 304] | < 10 nM
9 | C[C@@H](Cn1cnnn1)Oc1cccc(-c2ccc3ncc(-c4ccccc4CN=S(C)(C)=O)n3n2)c1 [compound 306] | 10 to 100 nM
10 | C[C@@H](Cn1cnnn1)Oc1cccc(-c2ccc3ncc(-c4ccccc4CN(C)C)n3n2)c1 [compound 307] | 10 to 100 nM
11 | C[C@@H](Cn1cnnn1)Oc1cccc(-c2ccc3ncc(-c4ccccc4CO)n3n2)c1 [compound 308] | < 10 nM
12 | C[C@@H](Cn1cnnn1)Oc1cccc(-c2ccn3ncc(-c4cnccc4C(N)=O)c3n2)c1 [compound 309] | 10 to 100 nM
13 | C[C@@H](Cn1cnnn1)Oc1cccc(-c2ccn3ncc(-c4cnccc4C#N)c3n2)c1 [compound 310] | < 10 nM
14 | COc1nc(-c2cnc3ccc(-c4cccc(O[C@@H](C)Cn5cnnn5)c4)nn23)ccc1C#N [compound 312] | < 10 nM
15 | C[C@@H](Cn1cnnn1)Oc1cc(-c2ccc3ncc(-c4cc(F)c[nH]c4=O)n3n2)ccc1F [compound 314] | < 10 nM
16 | COc1ncc(F)cc1-c1cnc2ccc(-c3cccc(O[C@@H](C)Cn4cnnn4)c3)nn12 [compound 315] | < 10 nM
17 | C[C@@H](Cn1cnnn1)Oc1cncc(-c2ccc3ncn(-c4cc(F)ccc4C#N)c3n2)c1 [compound 316] | < 10 nM
18 | C[C@@H](Cn1cnnn1)Oc1cc(-c2ccc3ncc(-c4cc(F)cn(C)c4=O)n3n2)ccc1F [compound 317] | < 10 nM
19 | C[C@@H](Cn1cnnn1)Oc1cccc(-c2ccc3ncc(-c4cc(=O)[nH]cc4C#N)n3n2)c1 [compound 318] | < 10 nM
20 | C[C@@H](Cn1cnnn1)Oc1cc(-c2ccn3ncc(-c4cc(F)ccc4C#N)c3n2)ccn1 [compound 319] | < 10 nM
21 | COc1cccc(-c2cnc3ccc(-c4cccc(O[C@@H](C)Cn5cnnn5)c4)nn23)c1C#N [compound 322] | < 10 nM
22 | COc1ncc(Cl)cc1-c1cnc2ccc(-c3cccc(O[C@@H](C)Cn4cnnn4)c3)nn12 [compound 323] | < 10 nM
23 | C[C@@H](Cn1cnnn1)Oc1cccc(-c2ccc3ncc(-c4cc(F)c[nH]c4=O)n3n2)c1 [compound 324] | < 10 nM

Row | SMILES | IC50
24 | COc1ncc(C)cc1-c1cnc2ccc(-c3cccc(O[C@@H](C)Cn4cnnn4)c3)nn12 [compound 327] | < 10 nM
25 | C[C@@H](Cn1cnnn1)Oc1cccc(-c2ccc3ncc(-c4cc(Cl)c[nH]c4=O)n3n2)c1 [compound 328] | < 10 nM
26 | Cc1c[nH]c(=O)c(-c2cnc3ccc(-c4cccc(O[C@@H](C)Cn5cnnn5)c4)nn23)c1 [compound 329] | < 10 nM
27 | C[C@@H](Cn1cnnn1)Oc1ccnc(-c2ccc3ncn(-c4cc(F)ccc4C#N)c3n2)c1 [compound 330] | < 10 nM
28 | C[C@@H](Cn1cnnn1)Oc1cccc(-c2ccc3ncc(-c4cc(F)cn(C)c4=O)n3n2)c1 [compound 331] | < 10 nM
29 | COc1ncccc1-c1cnc2ccc(-c3cccc(O[C@@H](C)Cn4cnnn4)c3)nn12 [compound 332] | < 10 nM
30 | Cc1cc(-c2cnc3ccc(-c4cccc(O[C@@H](C)Cn5cnnn5)c4)nn23)c(C#N)cn1 [compound 333] | < 10 nM
31 | C[C@@H](Cn1cnnn1)Oc1cccc(-c2ccc3ncc(-c4cc(Cl)cn(C)c4=O)n3n2)c1 [compound 334] | < 10 nM
32 | Cc1cc(-c2cnc3ccc(-c4cccc(O[C@@H](C)Cn5cnnn5)c4)nn23)c(=O)n(C)c1 [compound 335] | < 10 nM
33 | C[C@@H](Cn1cnnn1)Oc1cccc(-c2ccc3ncc(-c4cc(F)cnc4OCC(F)F)n3n2)c1 [compound 336] | < 10 nM
34 | C[C@@H](Cn1cnnn1)Oc1cccc(-c2ccc3ncc(-c4cc(F)cn(CC(F)F)c4=O)n3n2)c1 [compound 337] | < 10 nM
35 | C[C@@H](Cn1cnnn1)Oc1cccc(-c2ccc3ncc(-c4cc(F)cnc4OCC(F)(F)F)n3n2)c1 [compound 338] | < 10 nM
36 | C[C@@H](Cn1cnnn1)Oc1cccc(-c2ccc3ncc(-c4cc(F)cn(CC(F)(F)F)c4=O)n3n2)c1 [compound 339] | < 10 nM
37 | C[C@@H](Cn1cnnn1)Oc1cccc(-c2ccc3ncc(-c4cccn(CC(F)F)c4=O)n3n2)c1 [compound 340] | < 10 nM
38 | C[C@@H](Cn1cnnn1)Oc1cccc(-c2ccc3ncc(-c4cccn(CCOCC(F)(F)F)c4=O)n3n2)c1 [compound 341] | < 10 nM
39 | C[C@@H](Cn1cnnn1)Oc1cc(-c2ccc3ncn(-c4cc(F)ccc4C#N)c3n2)ccn1 [compound 343] | < 10 nM
40 | C[C@@H](Cn1cnnn1)Oc1cccc(-c2ccc3ncc(-c4nccc(OCC(F)(F)F)c4C#N)n3n2)c1 [compound 344] | < 10 nM
41 | C[C@@H](Cn1cnnn1)Oc1ccnc(-c2ccc3ncn(-c4cc(F)ccc4C#N)c3n2)n1 [compound 346] | 10 to 100 nM
42 | C[C@@H](Cn1cnnn1)Oc1cccc(-c2ccc3ncc(-c4cc(=O)n(C)cc4C#N)n3n2)c1 [compound 348] | < 10 nM
43 | C[C@@H](Cn1cnnn1)Oc1cccc(-c2ccc3ncc(-c4nc(C(F)(F)F)ccc4C#N)n3n2)c1 [compound 349] | 10 to 100 nM
44 | C[C@@H](Cn1cnnn1)Oc1cccc(-c2ccc3ncc(-c4nc(N(C)C)ccc4C#N)n3n2)c1 [compound 350] | 10 to 100 nM
45 | COc1cc(-c2cnc3ccc(-c4cccc(O[C@@H](C)Cn5cnnn5)c4)nn23)c(F)cn1 [compound 351] | < 10 nM
46 | C[C@@H](Cn1cnnn1)Oc1cccc(-c2ccc3ncc(-c4nccc(OCC5COC5)c4C#N)n3n2)c1 [compound 352] | < 10 nM

Row | SMILES | IC50
47 | COc1ccnc(-n2cnc3ccc(-c4cccc(O[C@@H](C)Cn5cnnn5)c4)nc32)c1C#N [compound 353] | < 10 nM
48 | COc1ccnc(-n2cnc3ccc(-c4ccc(F)c(O[C@@H](C)Cn5cnnn5)c4)nc32)c1C#N [compound 355] | < 10 nM
49 | C[C@@H](Cn1cnnn1)Oc1cccc(-c2ccc3ncc(-c4nccc(N(C)C)c4C#N)n3n2)c1 [compound 356] | < 10 nM
50 | C[C@@H](Cn1cnnn1)Oc1cc(F)cc(-c2ccc3ncc(-c4cccn(C)c4=O)n3n2)c1 [compound 357] | < 10 nM
51 | C[C@@H](Cn1cnnn1)Oc1cccc(-c2ccc3ncc(-c4cc(F)cnc4OCC#N)n3n2)c1 [compound 359] | < 10 nM
52 | C[C@@H](Cn1cnnn1)Oc1cccc(-c2ccc3ncc(-c4cc(F)cn(CC#N)c4=O)n3n2)c1 [compound 360] | < 10 nM
53 | CNc1ccc(C#N)c(-c2cnc3ccc(-c4cccc(O[C@@H](C)Cn5cnnn5)c4)nn23)n1 [compound 361] | < 10 nM
54 | COc1ncc(C#N)c(-c2cnc3ccc(-c4cccc(O[C@@H](C)Cn5cnnn5)c4)nn23)n1 [compound 362] | < 10 nM
55 | C[C@@H](Cn1cnnn1)Oc1cccc(-c2ccc3ncc(-c4nccc(N5CCCC5)c4C#N)n3n2)c1 [compound 363] | 10 to 100 nM
56 | C[C@@H](Cn1cnnn1)Oc1cccc(-c2ccc3ncc(-c4[nH]c(=O)ccc4C#N)n3n2)c1 [compound 364] | < 10 nM
57 | CCOc1ncnc(-c2cnc3ccc(-c4cccc(O[C@@H](C)Cn5cnnn5)c4)nn23)c1C#N [compound 365] | < 10 nM
58 | CCOc1ccnc(-c2cnc3ccc(-c4cccc(O[C@@H](C)Cn5cnnn5)c4)nn23)c1C#N [compound 366] | < 10 nM
59 | C[C@@H](Cn1cnnn1)Oc1cccc(-c2ccc3ncc(-c4nccc(NCC(F)F)c4C#N)n3n2)c1 [compound 367] | 10 to 100 nM
60 | C[C@@H](Cn1cnnn1)Oc1cc(-c2ccc3ncn(-c4ncccc4C#N)c3n2)ccc1Cl [compound 368] | 10 to 100 nM
61 | C[C@@H](Cn1cnnn1)Oc1cccc(-c2ccc3ncc(-c4nccc(NCC(F)(F)F)c4C#N)n3n2)c1 [compound 369] | 10 to 100 nM
62 | C[C@@H](Cn1cnnn1)Oc1cccc(-c2ccc3ncc(-c4nccc(N5CCC5)c4C#N)n3n2)c1 [compound 370] | 10 to 100 nM
63 | CCc1ccc(C#N)c(-c2cnc3ccc(-c4cccc(O[C@@H](C)Cn5cnnn5)c4)nn23)n1 [compound 371] | < 10 nM
64 | C[C@@H](Cn1cnnn1)Oc1cccc(-c2ccc3ncc(-c4ncnc(N(C)C)c4C#N)n3n2)c1 [compound 372] | 10 to 100 nM
65 | C[C@@H](Cn1cnnn1)Oc1cccc(-c2ccc3nnc(-c4ccccc4C#N)n3n2)c1 [compound 373] | > 100 nM
66 | CCOc1ccnc(-n2cnc3ccc(-c4cccc(O[C@@H](C)Cn5cnnn5)c4)nc32)c1C#N [compound 374] | < 10 nM
67 | CCOc1ccnc(-n2cnc3ccc(-c4ccnc(O[C@@H](C)Cn5cnnn5)c4)nc32)c1C#N [compound 375] | 10 to 100 nM
68 | C[C@@H](Cn1cnnn1)Oc1cccc(-c2ccc3ncc(-c4nccc(N(C)CC(F)F)c4C#N)n3n2)c1 [compound 376] | 10 to 100 nM
69 | COc1ccnc(-c2c(F)nn3ccc(-c4cccc(O[C@@H](C)Cn5cnnn5)c4)nc23)c1C#N [compound 377] | 10 to 100 nM
